These results are taken from patent US20230218573A1, “INDOLE COMPOUNDS FOR THE TREATMENT OF NEURODEGENERATIVE DISEASES” (GALYAN BIO, INC., priority 2020, published 2023).

“Also recorded” adds a separate entry of the source.

Data set [1] is described as follows: Modified PAMPA with brain lipids, blood brain barrier permeation by LC-MS-MS. In kind it is in vitro ADME. The procedure: Compounds from the Biacore screening were analyzed in a modified Parallel Artificial Permeation Assay (PAMPA) assay for their ability to permeate the blood brain barrier. The filter material of a 96-well microplate is impregnated with brain lipids (Di, L. et al., Eur. J. Med. Chem. 2003 Mar;38(3):223-232). The test compounds were added to the donor compartment. […] Based on these permeation data, the drugs were classified as blood brain barrier permeating (BBB+) with a flux rate >50% or non-permeating (BBB-) with a flux rate <50%.
(In PAMPA a lipid-coated filter parts donor from acceptor wells.)

Data set [2] deals with T1, mHTT (Mus musculus, UniProt P42859, DEL28-30/G47A/INS49LLPQPQPP/INS60VA/L56P/P40L). The experiment in a line: Diffuse mHTT levels in heat shocked STHdh 111/111 striatal cells by immunocytochemistry. The conditions noted are these: 48 h, read-out: mHTT after treatment.
T1 sequence (P42859 with tags, fused parts or gaps DEL28-30/P40L/G47A/INS49LLPQPQPP/L56P/INS60VA): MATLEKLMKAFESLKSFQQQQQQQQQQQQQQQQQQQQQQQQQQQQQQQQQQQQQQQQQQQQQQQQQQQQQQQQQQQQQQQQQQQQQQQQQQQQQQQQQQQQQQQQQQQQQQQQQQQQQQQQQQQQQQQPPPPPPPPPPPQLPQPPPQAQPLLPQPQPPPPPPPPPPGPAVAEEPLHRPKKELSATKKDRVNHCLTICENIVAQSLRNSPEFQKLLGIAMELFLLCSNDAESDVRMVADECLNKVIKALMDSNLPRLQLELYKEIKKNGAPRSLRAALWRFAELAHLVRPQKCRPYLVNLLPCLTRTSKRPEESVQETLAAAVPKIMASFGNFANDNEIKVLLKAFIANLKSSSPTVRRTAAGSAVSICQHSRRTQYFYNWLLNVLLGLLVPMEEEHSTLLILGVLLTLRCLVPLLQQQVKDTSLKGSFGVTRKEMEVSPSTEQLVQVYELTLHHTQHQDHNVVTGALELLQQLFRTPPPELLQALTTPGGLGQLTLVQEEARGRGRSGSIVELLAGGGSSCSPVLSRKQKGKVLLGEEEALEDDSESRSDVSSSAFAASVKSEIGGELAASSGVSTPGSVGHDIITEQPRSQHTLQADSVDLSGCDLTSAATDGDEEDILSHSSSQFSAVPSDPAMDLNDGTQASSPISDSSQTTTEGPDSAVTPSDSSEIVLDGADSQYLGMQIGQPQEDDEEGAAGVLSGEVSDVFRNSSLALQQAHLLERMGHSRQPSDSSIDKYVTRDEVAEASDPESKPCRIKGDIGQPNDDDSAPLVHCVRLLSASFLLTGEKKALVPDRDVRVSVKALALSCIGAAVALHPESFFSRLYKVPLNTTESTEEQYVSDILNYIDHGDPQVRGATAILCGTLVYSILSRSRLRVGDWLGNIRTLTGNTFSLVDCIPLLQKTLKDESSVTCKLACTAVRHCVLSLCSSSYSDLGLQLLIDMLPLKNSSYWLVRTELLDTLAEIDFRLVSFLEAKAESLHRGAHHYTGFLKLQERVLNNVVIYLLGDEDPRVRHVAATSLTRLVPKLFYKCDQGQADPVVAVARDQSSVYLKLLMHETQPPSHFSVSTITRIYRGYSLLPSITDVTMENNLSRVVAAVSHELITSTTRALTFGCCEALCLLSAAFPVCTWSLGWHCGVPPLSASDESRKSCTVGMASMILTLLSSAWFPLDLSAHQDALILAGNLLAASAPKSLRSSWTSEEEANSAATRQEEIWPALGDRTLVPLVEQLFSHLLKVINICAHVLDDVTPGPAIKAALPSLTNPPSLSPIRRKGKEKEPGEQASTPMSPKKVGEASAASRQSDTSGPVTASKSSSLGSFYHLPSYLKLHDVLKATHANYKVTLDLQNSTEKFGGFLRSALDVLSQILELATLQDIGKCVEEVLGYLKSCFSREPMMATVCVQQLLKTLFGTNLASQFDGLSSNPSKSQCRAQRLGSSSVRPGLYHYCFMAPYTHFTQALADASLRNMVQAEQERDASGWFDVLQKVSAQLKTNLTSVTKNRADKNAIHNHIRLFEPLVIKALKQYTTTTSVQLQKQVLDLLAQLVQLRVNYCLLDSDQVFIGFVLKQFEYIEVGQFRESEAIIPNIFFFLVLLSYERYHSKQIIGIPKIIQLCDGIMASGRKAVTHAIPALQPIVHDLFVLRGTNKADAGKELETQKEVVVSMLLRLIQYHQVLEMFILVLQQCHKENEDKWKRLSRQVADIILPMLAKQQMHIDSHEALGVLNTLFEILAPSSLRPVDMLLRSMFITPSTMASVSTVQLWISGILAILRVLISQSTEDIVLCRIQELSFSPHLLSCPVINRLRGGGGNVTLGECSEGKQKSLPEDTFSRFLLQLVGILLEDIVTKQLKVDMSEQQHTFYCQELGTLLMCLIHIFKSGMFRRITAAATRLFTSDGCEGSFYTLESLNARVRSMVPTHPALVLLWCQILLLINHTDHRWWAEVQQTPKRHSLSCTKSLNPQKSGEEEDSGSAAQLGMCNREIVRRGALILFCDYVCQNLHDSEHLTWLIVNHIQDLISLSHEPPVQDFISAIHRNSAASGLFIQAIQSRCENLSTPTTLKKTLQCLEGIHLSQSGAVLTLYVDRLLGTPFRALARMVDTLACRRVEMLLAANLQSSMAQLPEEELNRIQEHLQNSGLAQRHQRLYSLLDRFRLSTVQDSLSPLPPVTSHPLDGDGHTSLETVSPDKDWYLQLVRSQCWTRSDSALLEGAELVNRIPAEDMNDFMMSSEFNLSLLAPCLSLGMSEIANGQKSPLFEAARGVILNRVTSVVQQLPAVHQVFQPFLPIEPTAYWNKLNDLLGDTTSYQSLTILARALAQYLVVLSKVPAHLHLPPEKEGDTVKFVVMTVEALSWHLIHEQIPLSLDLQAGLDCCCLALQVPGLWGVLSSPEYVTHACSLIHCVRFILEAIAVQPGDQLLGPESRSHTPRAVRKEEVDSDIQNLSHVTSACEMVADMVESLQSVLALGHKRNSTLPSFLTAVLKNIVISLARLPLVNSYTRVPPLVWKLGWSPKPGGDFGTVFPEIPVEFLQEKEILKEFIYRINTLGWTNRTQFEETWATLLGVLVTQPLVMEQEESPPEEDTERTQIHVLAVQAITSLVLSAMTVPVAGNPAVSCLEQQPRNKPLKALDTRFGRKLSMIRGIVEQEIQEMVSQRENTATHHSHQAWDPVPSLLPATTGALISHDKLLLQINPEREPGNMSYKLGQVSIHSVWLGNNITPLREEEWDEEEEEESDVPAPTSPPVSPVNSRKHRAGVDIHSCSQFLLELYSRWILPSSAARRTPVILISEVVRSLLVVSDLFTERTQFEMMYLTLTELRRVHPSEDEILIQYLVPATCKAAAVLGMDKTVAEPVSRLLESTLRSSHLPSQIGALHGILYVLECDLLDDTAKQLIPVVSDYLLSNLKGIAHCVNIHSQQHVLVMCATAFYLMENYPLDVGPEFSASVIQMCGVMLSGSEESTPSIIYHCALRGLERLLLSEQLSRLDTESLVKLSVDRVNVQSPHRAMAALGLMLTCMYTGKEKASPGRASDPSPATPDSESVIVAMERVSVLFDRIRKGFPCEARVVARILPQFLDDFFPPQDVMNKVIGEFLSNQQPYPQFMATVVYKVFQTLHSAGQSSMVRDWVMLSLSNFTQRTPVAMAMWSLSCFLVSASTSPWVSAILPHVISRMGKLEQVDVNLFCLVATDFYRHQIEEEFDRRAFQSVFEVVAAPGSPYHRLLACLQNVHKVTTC
The test system of another data set is Mur46. The conditions noted are these: 0.1 mM compound concentration.
In data set [3] the test system is Htt14A2.6 PC12 cells (mHttex1-GFP). Nature of the data set: mHTT aggregation by filter retardation assay in Htt14A2.6 PC12 cells. In kind it is cell-based. The conditions noted are these: 24 hour treatment, different concentrations. The procedure:
Compounds from the Biacore screening were selected for measurement of aggregation in a cell model Htt14A2.6 PC12. Htt14A2.6 PC12 cells express a GFP- tagged 97Q mHtt exon 1 fusion protein (mHttex1-GFP) in the presence of ponasterone A. Htt14A2.6 PC12 cells were grown in medium containing 5 µM ponasterone A for 20 hours prior to treatment with the compounds. Htt14A2.6 PC12 cells were plated at 50~60% confluency. Compound 22 was tested at a final concentration of 80 nM, 400 nM and 10 µM in cell culture medium for 24 hours. Htt14A2.6 PC12 cells were harvested, rinsed, homogenized in cold phosphate-buffered saline containing protease inhibitor cocktail, and centrifuged at 16000 g for 30 min at 4° C. twice. About 25 µg total protein of each sample was resolved in 8% SDS PAGE, transferred onto PVDF membrane, blotted with an anti-GFP antibody, and visualized by ECL detection. mHTT aggregates were quantified from the cell lysates by filter retardation assay (Wanker, E.E., et al., Methods Enzymol (1999); 309: 375-386).

Data set [4] has as its system STHdh 111/111 striatal cells. The experiment in a line: Cell viability (CellTiter Glo) of heat shocked STHdh 111/111 striatal cells. The conditions noted are these: Mus musculus, STHdh 111/111; 10 µM; 48 hours treatment; read-out: Cell Viability striatal cells 3h heat shocked. Format: cell-based, mouse. (In general: In ATP-based viability assays light output follows the ATP content of the culture.)
Experimental: Cell culture - ST HDH Q111/111 (CH00095, Coriell Institute) striatal derived cell line were grown at 33° C. in DMEM (Sigma-Aldrich), supplemented with 10% fetal bovine serum (FBS), 1% Penicillin-Streptomycin (ThermoFisher Scientific), and 0.4 mg/ml G418 (Geneticin; Invitrogen). ST HDH Q111/111 are mouse striatal cells with polyQ length of 1111.
Pre-Treatment of striatal cell line - First the medium was removed and new DMEM (DMEM, high glucose, HEPES, no phenol red) medium, supplemented with 10% fetal bovine serum (FBS), 1% Penicillin-Streptomycin, containing 10 µM compound was added. The cells were incubated at 33° C. for 24 hours.
Heat shock - Cells were heat shocked for 3 hours at 41° C.
Treatment - Medium was removed and new DMEM (DMEM, high glucose, HEPES, no phenol red) medium, supplemented with 1% fetal bovine serum (FBS), 1% Penicillin-Streptomycin, containing 10 µM compound was added. The cells were incubated at 33° C. for 48 hours.
Cell Viability - Cell viability was measured according to manufacturer recommendations with CellTiter Glo (Promega). 96-well plates for used either for cell viability determination or cell staining.

Data set [5] has as its target T1, mHTT. The experiment in a line: mHTT reduction in STHdh 111/111 cells exposed to autophagy inhibitor NH4Cl or UPS inhibitor MG132. Format: cell-based. On the set-up: host or cells: ST HDH Q111/111 mouse striatal derived cell line. The note with it: striatal cells exposed to MG132. The procedure:
Invitrogen). […] Staining - Cells were permeabilized with 0.3% Triton X-100 in 4° C. PBS (pH 7.4 from ThermoFisher) for 10 minutes. Then the cells were washed two times with 4° C. PBS. Subsequently, cells are blocked with 3% NGS (normal goat serum from Thermo Fisher) in 4° C. PBS for 1 hour. […] Primary antibodies were mouse antipolyglutamine monoclonal antibody 3B5H10 (Sigma-Aldrich) at 1:250 dilution and Guinea Pig anti-MAP2 polyclonal antibody (Synaptic Systems) at 1:500 dilution. For LC3 staining primary antibodies were mouse anti-LC3 mab (5F10) (nanoTools) at 1:500 dilution and Guinea Pig anti-MAP2 polyclonal antibody (Synaptic Systems) at 1:500 dilution. Cells were washed 2 times with 4° C. PBS, and then incubated with secondary antibodies at 1:2000 dilution in blocking buffer for 1 hour at room temperature. […] Fluorescence Imaging - Imaging sessions were performed on a confocal microscope system (Carl Zeiss Microscopy) equipped with a dual spinning disk unit (Yokogawa). […] The fluorescence images obtained of the immunofluorescence labelled tissue sections were quantified with the help of the “Image Processing and Analysis in Java” or short ImageJ software distributed under the GNU General Public License by the NIH (Rueden, C.T. et al., BMC Bioinformatics. 2017 Nov 29;18(1):529), i.e. the edition used was the Fiji distribution (Schindelin, J. et al., Nature methods. 2012 Jun 28;9(7):676-82). […]

The next data set has as its system zebrafish larvae. Nature of the data set: Zebrafish MPP+ motility model, photomotor assay. Format: in vivo. The note with it: MPP+ alone, 500 µM. The procedure:
MPP+ selectively targets dopaminergic neurons; the putative mechanism is induction of K+ efflux, cell membrane hyperpolarization and inhibition of neuronal firing. This ultimately leads to an inhibition of complex I, a decrease in ATP production and promotion of the generation of reactive oxygen species upon accumulation in the mitochondria (3). The observed phenotype following exposure to 500 µM from 24 hours post fertilization (hpf) to 120 hpf is characterized by a decrease in movement during lights-on phases of a photomotor assay. In unpublished data below, representative locomotor perturbations of the distance moved and movement frequency is shown.
Six groups were included in each experiment. Immediately after spawning, 40 embryos per group were allocated to a 24-well plate and system water (solvent) was added to all wells. For assessment of neuroprotective potential, Compound 4 was added for a final concentration of 1, 10 and 20 µM (column 4-6). From the following day at 24 hpf, Compound 4 was co-incubated with 500 µM MPP+. MPP+ was prepared immediately prior to incubation and solutions were changed daily. At 120 hpf, drug treatment and MPP+ exposure was ceased and a 3X wash was performed with system water. Larvae were then relocated to 96-well plates for behavioral recording and placed in a separate recording room for 24-hour acclimation. Prior to behavioral recording, wells were fully replenished system water.
Naive group was exposed to solvent only. Vehicle group was exposed to solvent and vehicle corresponding to the vehicle of 20 µM drug solution (0.02% DMSO). MPP+ positive control was exposed to solvent and 500 µM MPP+. All compound groups were treated with the respective vehicle and respective concentration of compound 4.
Behavioral data was recorded from 1 p.m. on 6 dpf until shortly after wakening on 7 dpf. The recording consisted of a photomotor assay in which lights switch off and on in 30-minute intervals between 1 p.m. and 6 p.m., producing a consistent photomotor response. […] Upon lights being turned on again, the larvae cease movement followed by a return to baseline. This cycle is repeated five times. Following the last lights-off phase, constant illumination is presented until lights turn off at 10 p.m. for the night. Lights turn on again at 8 a.m. the following day.
Average movement frequency was measured during 30-minute lights-on phases of photomotor assay. Movement bouts were defined as initiated when velocity exceeded a threshold of 2 mm/s and ceased when velocity fell below 1 mm/s.
Distance moved (mm) was defined as the average distance moved during 30-minute lights-on phases of photomotor assay.
Data was obtained using EthoVision XT (Version 11.5.2016, Noldus) and exported to Microsoft Excel for data analysis. […]

The test system of the next data set is Exon1 Q46. Nature of the data set: Circular dichroism of Exon1 Q46, predominantly α-helical state. Format: biochemical. The note with it: Exon1 Q46; conc. compound 1.62 µM. The procedure: Protein samples were diluted with buffer to 7.5 µM prior to Circular Dichroism (CD) measurements. Measurements were conducted at room temperature.
Four spectra at each measurement were taken every 1 nm from 200 to 260 nm, scanning at 50 nm/min with an averaging time of 1 sec. Spectra were obtained from samples in 20 mM phosphate, pH 7.4. Ten scans were averaged for each sample spectrum
Single-wavelength readings at 222 nm were obtained. After subtraction of the Trx contribution, the α-helical content of Httex1 was estimated from its mean residue ellipticity (MREHttex1) at 222 nm. This calculation was conducted as described by Bravo-Arredondo (Bravo-Arredondo, J.M. et al., J Biol Chem. 2018 Dec 21;293(51):19613-19623).
MRE Exon-1 […] and Q46 (Mean Residue Ellipticity) was measured every 1 sec for 300 sec; the 301 readings for each sample were averaged and MRE Trx subtracted. The number of amino acids in each sample to experience a change in helicity was estimated using a previously developed helix-coil transition model, which gave the change in fraction of helicity (ΔfHelix) by the following equation: […]
where MRE Exon1 Q26 or Q46 (MREHttex1 in the formula) describes the helix-coil transition, obtained from the difference between MRE Eon1 Q26 or Q46 at 222 nm of the fusion protein at the given temperature (in our case 37° C.) and the product of MRE Trx at 222 nm at the same temperature and the fraction of residues comprised by Trx in that particular construct, and
In order to calculate an equilibrium of the two states model, percent α-helicity was calculated using the relation of MREHttex1 = 0 and -34700 (deg cm^2 dmol^-1) for 0% and 100% helicity, respectively.
The CD measurements protocol for Compound 101 was the same as outlined above except that from 206 nm - 210 nm and 220 nm - 224 nm, the step size was 0.2 nm, and the bandwidth was 1 nm.

Experimental for Mur46: MurTRX, Mur 16 and Mur46 Protein Purification - Proteins were loaded onto IMAC resin (ThermoFisher Scientific HisPur) and eluted in 200 mM imidazole, purified by gel filtration FPLC (HiLoad superdex-200, 26/60; GE Life sciences) and concentrated using 3 kDa cut off Vivaspin 20 PES centrifugal concentrators (Sartorius AG). Proteins were biotinylated using a 1:0.5 molar ratio of EZ-link™ Sulfo-NHS-LC-LC-Biotin (ThermoFisher Scientific) and thoroughly dialysed against PBS prior to Biacore coupling.
A customized biotin capture chip using NeutrAvidin as the capture ligand was created for this assay. To obtain high enough ligand density on the sensor chip surface, NeutrAvidin (Thermoscientific Pierce, Waltham, MA USA) was immobilised on all four sensor chip surfaces to a level of approximately 20,000 RU.
Capture of the Mur ligands to NeutrAvidin - Biotinylated proteins were diluted in HBS EP+ running buffer and captured on the sensor chip surface. Mur46 was coupled to the sensor chip first. After saturating FC3 with Mur46, target response levels for Mur16 and MurTRX were calculated based on their respective molecular weights. […]
Analog Screening-Methods - Analog or derivative compounds from the secondary screen were determined and were used in an analog Biacore SPR screen. […]

In the case of `Cc1[nH]c2ccc(C(=O)NCCN(C)C)cc2c1C` [Compound 7], in data set [1], the Classification entry was “BBB+ (blood brain barrier permeating (BBB+) with a flux rate >50%)” and the recovery is 88.5%. Moreover, at mHTT [2], the remaining activity at 10 µM worked out at 45%. Moreover, the “Biacore affinity (RU^2)” value in the data set with Mur46 was 122 RU^2. In addition, in data set [3], the “reduction of mHTT aggregation (filter retardation)” value is reported as “A reduction of aggregation of Htt14A2.6 PC12 was not observed; also recorded: did not show a reduction of aggregation”. For the same compound, in data set [4], the viability – broadly, a read-out of living cells in per cent, often relative to untreated cells – at 10 µM was found to be 96%.
On to `O=C(NCCN1CCC1)c1ccc2[nH]c3c(c2c1)CCCC3` [Compound 20], for which the “mHTT reduction with MG132 in comparison to without MG132” value at mHTT [5] was “less”. The viability at 10 µM in data set [4] turned out to be 118%.
On to `C[n+]1ccc(-c2ccccc2)cc1` [MPP+, reference compound], for which the “distance moved compared to naive larvae” value in the data set on zebrafish larvae was “moved significantly shorter distances than naive larvae”.
With `Cc1[nH]c2ccc(C(=O)NC3CCC(N(C)C)CC3)cc2c1C` (stereo not drawn) [Compound 101, N-(4-(dimethylamino)cyclohexyl)-2,3-dimethyl-1H-indole-5-carboxamide], the “Fraction Helix fH (%)” value in the data set with Exon1 Q46 is reported as 19.0%. Further, the viability at 10 µM in data set [4] was 110%.
For `Cc1[nH]c2ccc(C(=O)N(C)CCN(C)C3CC3)cc2c1C` [Compound 114], in the data set with Mur46, the “Biacore affinity (RU^2)” value was 20 RU^2.
